From patent US20250127801A1, “BRIDGED TRICYCLIC CARBAMOYLPYRIDONE COMPOUNDS AND USES THEREOF” (priority 2023, published 2025)
Values after ≈ are worked out from the molar mass of the structure shown. Read-outs that look alike come from different tables or passages of the source.

How the values were obtained:
HIV-1 (IIIB) = assay: microbe, parasite or virus in culture; type: cell-based
in vitro = conditions: human; for CC50 at 5 days: uninfected MT-4 cells
physchem = conditions: 23 °C, thermodynamic from solid; for solubility thermodynamic: fassif
[1] = Human immunodeficiency virus 1, IIIB, MT4, 120 h, read-out: MT4 EC50 (nM)
[2] = Human immunodeficiency virus 1, MT4, 120 h, HIV-1 (IIIB) replication in MT-4 cells, 5 days incubation, Cell Titer Glo, read-out: MT4 EC50

| SMILES | EC50 (HIV-1 (IIIB); [1]) | CC50 (in vitro) | solubility thermodynamic (physchem) | EC50 (HIV-1 (IIIB); [2]) | CC50 at 5 days (in vitro) | solubility thermodynamic at 24 h (physchem; FaSSIF) |
| --- | --- | --- | --- | --- | --- | --- |
| CC1=NO[C@@]2(CC[C@H](C)N3C[C@H]2n2cc(C(=O)NCc4ccc(F)cc4F)c(=O)c(OCOC(=O)CC(C)(C)c4c(CC(=O)N[C@@H](CC(=O)O)C(=O)O)cc(C)cc4OP(=O)(O)O)c2C3=O)C1 [Compound 43, (2-(2-(4-((((3′S,5S,7′R)-10′-((2,4-difluorobenzyl)carbamoyl)-3,3′-dimethyl-1′,11′-dioxo-1′,4′,5′,11′-tetrahydro-3′H,4H,7′H-spiro[isoxazole-5,6′-[2,7]methanopyrido[1,2-a][1,4]diazonin]-12′-yl)oxy)methoxy)-2-methyl-4-oxobutan-2-yl)-5-methyl-3-(phosphonooxy)phenyl)acetyl)-L-aspartic acid] | 2.64 nM | 30700 nM | 5280 µg/mL (≈ 5.5 mM) |  |  |  |
| CC1=NO[C@@]2(CC[C@H](C)N3C[C@H]2n2cc(C(=O)NCc4ccc(F)cc4F)c(=O)c(OCOC(=O)N(C)C[C@@H]4CCCN4)c2C3=O)C1 [Compound 13, (((3′S,5S,7′R)-10′-((2,4-difluorobenzyl)carbamoyl)-3,3′-dimethyl-1′,11′-dioxo-1′,4′,5′,11′-tetrahydro-3′H,4H,7′H-spiro[isoxazole-5,6′-[2,7]methanopyrido[1,2-a][1,4]diazonin]-12′-yl)oxy)methyl methyl(((S)-pyrrolidin-2-yl)methyl)carbamate] |  |  |  | 0.762 nM | 10800 nM | 1980 µg/mL (≈ 3.02 mM) |
| CC1=NO[C@@]2(CC[C@H](C)N3C[C@H]2n2cc(C(=O)NCc4ccc(F)cc4F)c(=O)c(OC(=O)OCc4ccccc4OP(=O)(O)O)c2C3=O)C1 [Compound 32, (3′S,5S,7′R)-10′-((2,4-difluorobenzyl)carbamoyl)-3,3′-dimethyl-1′,11′-dioxo-1′,4′,5′,11′-tetrahydro-3′H,4H,7′H-spiro[isoxazole-5,6′-[2,7]methanopyrido[1,2-a][1,4]diazonin]-12′-yl (2-(phosphonooxy)benzyl) carbonate] |  |  | 1330 µg/mL (≈ 1.86 mM) |  |  |  |
| CC1=NO[C@@]2(CC[C@H](C)N3C[C@H]2n2cc(C(=O)NCc4ccc(F)cc4F)c(=O)c(OCOC(=O)N(C)c4ncccc4CN(CC(=O)N[C@@H](CCC(=O)O)C(=O)O)C(=O)OCOP(=O)(O)O)c2C3=O)C1 [Compound 60, N-((2-((((((3′S,5S,7′R)-10′-((2,4-difluorobenzyl)carbamoyl)-3,3′-dimethyl-1′,11′-dioxo-1′,4′,5′,11′-tetrahydro-3′H,4H,7′H-spiro[isoxazole-5,6′-[2,7]methanopyrido[1,2-a][1,4]diazonin]-12′-yl)oxy)methoxy)carbonyl)(methyl)amino)pyridin-3-yl)methyl)-N-(((phosphonooxy)methoxy)carbonyl)glycyl-L-glutamic acid] | 1.59 nM | 13800 nM |  |  |  |  |
| CCCCCCCCCCCCCC(=O)Oc1ccc(CC(=O)Oc2c3n(cc(C(=O)NCc4ccc(F)cc4F)c2=O)[C@@H]2CN(C3=O)[C@@H](C)CC[C@]23CC(OC)=NO3)cc1 [Compound 95, [4-[2-[(1R,10S,13S)-4-[(2,4-difluorophenyl)methylcarbamoyl]-3′-methoxy-10-methyl-5,8-dioxo-spiro[2,9-diazatricyclo[7.4.1.02,7]tetradeca-3,6-diene-13,5′-4H-isoxazole]-6-yl]oxy-2-oxo-ethyl]phenyl] tetradecanoate] |  |  |  | 3.49 nM | ≥ 50000 nM |  |
| CCCCCCCCCCCCCC(=O)OCc1ccccc1C(=O)Oc1c2n(cc(C(=O)NCc3ccc(F)cc3F)c1=O)[C@@H]1CN(C2=O)[C@@H](C)CC[C@]12CC(OC)=NO2 [Compound 91, (3′S,5S,7′R)-10′-((2,4-difluorobenzyl)carbamoyl)-3-methoxy-3′-methyl-1′,11′-dioxo-1′,4′,5′,11′-tetrahydro-3′H,4H,7′H-spiro[isoxazole-5,6′-[2,7]methanopyrido[1,2-a][1,4]diazonin]-12′-yl 2-((tetradecanoyloxy)methyl)benzoate] |  |  |  | 5.07 nM | ≥ 50000 nM |  |
